pIC50: −log10 of the molar value.
Tests used:
[1] = Antioxidant activity in liposomal model assessed as inhibition of ferrous ion-induced lipid peroxidation at 2 mM; format: functional; design: scale not given: the % may be the effect or the level left
[2] = molecular target: Prostaglandin G/H synthase 1 (Homo sapiens, UniProt P23219); experiment: Inhibition of PGHS1 assessed as conversion of arachidonic acid to prostaglandin
Sequence of Prostaglandin G/H synthase 1 (P23219 whole entry): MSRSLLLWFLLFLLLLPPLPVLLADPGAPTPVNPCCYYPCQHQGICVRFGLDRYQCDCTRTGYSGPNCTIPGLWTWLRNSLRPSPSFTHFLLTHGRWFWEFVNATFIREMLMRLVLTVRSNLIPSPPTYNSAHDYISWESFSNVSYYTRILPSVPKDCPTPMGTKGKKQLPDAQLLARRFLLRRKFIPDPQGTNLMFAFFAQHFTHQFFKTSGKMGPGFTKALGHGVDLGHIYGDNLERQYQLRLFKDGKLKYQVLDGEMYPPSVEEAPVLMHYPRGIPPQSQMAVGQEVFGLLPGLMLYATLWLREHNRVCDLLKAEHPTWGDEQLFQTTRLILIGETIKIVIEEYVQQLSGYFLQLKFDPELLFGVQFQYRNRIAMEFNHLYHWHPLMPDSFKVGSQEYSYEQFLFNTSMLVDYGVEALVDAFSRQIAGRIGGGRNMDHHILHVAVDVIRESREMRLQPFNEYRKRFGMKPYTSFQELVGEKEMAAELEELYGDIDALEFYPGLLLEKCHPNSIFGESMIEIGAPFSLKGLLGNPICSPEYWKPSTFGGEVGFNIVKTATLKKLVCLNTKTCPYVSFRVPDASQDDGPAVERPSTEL

`Oc1cc(O)c2cc(O)c(-c3ccc(O)c(O)c3)[o+]c2c1` [CYANIDIN] gave an Activity [1] of 57% and a pIC50 [2] of 4.05.

From ChEMBL document CHEMBL1158018 (J Nat Prod, 1999)
